Data on four compounds can be found in patent US5068465A, “Pharmaceutically active 3-aryl-2-fluoro-1-olefins” (Merrell Dow Pharmaceuticals Inc., priority 1990, dated 1991).

One experiment concerns monoamine oxidase. The following applies: J. Med. Chem., 27, 9 (1984); cited from earlier work.
Another experiment relates to DBH. The following applies: J. Biol. Chem., 259, No. 11, 6925 (1984); cited from earlier work.
Experiment [1] concerns dopamine beta-hydroxylase (DBH). Put plainly: time-dependent DBH inhibitory activity (tyramine conversion followed by oxygen uptake, polarographic electrode). The following applies: Concentration 12.9 mM; pH about 5; about 37° C.; ascorbate; tyramine substrate; 0.989 correlation. In kind it is biochemical. As to the method:
The compounds of this invention are useful as dopamine beta-hydroxylase inhibitors for the treatment of, for instance, hypertension. The dopamine beta-hydroxylase (DBH) inhibitory properties of the compounds of this invention can readily be determined by standard and well known procedures. […] The test compound is added at the desired concentration, and the system is incubated. At different time intervals, tyramine, a substrate of DBH, is introduced to aliquots of the incubated enzyme solution and DBH activity is measured by the method of S. May, et al, J. Biol. Chem. 256, 2258 (1981), where the enzyme-activated conversion of tyramine is followed by monitoring oxygen uptake by means of a polarographic electrode and an oxygen monitor, to determine the level of DBH activity.

In the case of `COc1ccc(C(=CF)CN)cc1OC` [2-(3,4-dimethoxyphenyl)-3-fluoroallylamine], the “active as a monoamine oxidase inhibitor” value with monoamine oxidase is reported as “active as a monoamine oxidase inhibitor”.
Take `C=C(Br)Cc1ccc(O)cc1` [2-bromo-3-(4-hydroxyphenyl)-1-propene]: the “mechanism-based inhibitors of DBH” value with DBH is “mechanism-based inhibitors of DBH”.
Regarding `C=C(Cl)Cc1ccc(O)cc1` [2-chloro-3-(4-hydroxyphenyl)-1-propene], the “mechanism-based inhibitors of DBH” value in the experiment on DBH is listed as “mechanism-based inhibitors of DBH”.
On to `C=C(F)Cc1ccc(O)cc1` [3-(4-Hydroxyphenyl)-2-Fluoro-1-Propene], for which the “t 1/2: time required to reach 50% log activity” value in experiment [1] stood at 5 min.
